Key:
[1] = Brain acyl-CoA concentrations (LC-MS/MS) in vehicle- or MEP-treated rats; format: in vivo, rat; settings: MEP vs vehicle
Procedure: At 15 weeks of age, 16 rats were randomized to receive vehicle or 10 mg/kg MEP via tail vein catheter as described above. Fifteen minutes post injection, rats were euthanized by head-focused high energy microwave irradiation (13.5 kW for 1.6 s) and brains were excised and sagittally cut for unesterified FAs/lipid mediators and acyl-CoA analyses as described below. Brain hemispheres were homogenized in ethanol to yield a concentration of 100 mg tissue/ml. The unesterified FAs from 100 mg of brain tissue were isolated. The unesterified FA bands were collected and extracted twice from silica by hexane:isopropanol (3:2 by volume) with 5.5% water. Extracted unesterified FAs were dried down with nitrogen gas and added with 100 μl of freshly made pentafluorobenzylbromide (PFB) cocktail consisting of acetonitrile:N,N-diisopropylethylamine:PFB (1 ml:100 μl:10 μl by volume). The mixtures were shaken for 15 min and dried down with nitrogen gas. FA-PFB esters (FAPEs) were reconstituted in 100 μl hexane for GC-MS analysis as described below.
Long chain acyl-CoA was extracted from the brains of vehicle- and MEP-treated rats as well as the brains of radiotracer-infused rats using a modified affinity chromatography method ([40]). Brains were homogenized by a probe sonicator in isopropanol:25 mM KH2PO4:acetonitrile (1:1:2 by volume) with 10 nmol of added internal standard, heptadecanoyl-CoA (17:0-CoA). Subsequently, protein was precipitated from the homogenate by the addition of saturated (NH4)2SO4. […]
Acyl-CoA concentrations were detected using an Agilent 1200 Binary LC pump (Agilent Technologies, Wilmington, DE) equipped with a Zorbax SB-Phenyl column (3 × 50 mm, 3.5 μm spherical size; Chromatographic Specialties, Brockville, ON, Canada). […] Peaks were identified and quantified by mass transitions, compound specific parameters, and standard curves of authentic acyl-CoA standards (Avanti, Alabaster, AL) (supplementary Fig. I). Concentrations were corrected for percent recovery of heptadecanoyl-CoA and expressed as nmol/g brain.

[2] = Brain unesterified FA concentrations (GC-MS; EPA by LC-MS/MS) in vehicle- or MEP-treated rats; format: in vivo, rat; settings: MEP vs vehicle
Procedure: At 15 weeks of age, 16 rats were randomized to receive vehicle or 10 mg/kg MEP via tail vein catheter as described above. […] Brain hemispheres were homogenized in ethanol to yield a concentration of 100 mg tissue/ml. The unesterified FAs from 100 mg of brain tissue were isolated. The unesterified FA bands were collected and extracted twice from silica by hexane:isopropanol (3:2 by volume) with 5.5% water. […] The mixtures were shaken for 15 min and dried down with nitrogen gas. FA-PFB esters (FAPEs) were reconstituted in 100 μl hexane for GC-MS analysis as described below. For measurements of unesterified EPA, brain samples were homogenized in ethanol on ice. An aliquot of 100 mg tissue was spiked with ARA-d8 (20 ng; Cayman Chemical, Ann Arbor, MI) and dried under nitrogen gas in reduced light conditions. Residues were dissolved in ethanol, acidified to pH 4 with 1 N HCl, and extracted three times with ethyl acetate. After washing to neutrality with water, the ethyl acetate fraction was dried under nitrogen and transferred to siliconized minivials for liquid chromatography-tandem mass spectrometry (LC-MS/MS) analysis as described below. Brain unesterified EPA was detected using an Agilent HPLC 1200 equipped with a Zorbax SB-Phenyl column. HPLC solvent contained 4 μl/l propionic acid. The initial conditions of elution were set at 400 μl/min gradient system consisting of (A) water and (B) acetonitrile. […] Mass spectrometry analyses were carried out on API5500 triple quadruple mass spectrometer (AB SCIEX, Concord, ON, Canada). The QTRAP analyses were conducted in electrospray ionization negative ion mode. The turbospray temperature was set to 500°C and the ion spray voltage to 4,500 V. The collision energy, declustering potential, and collision cell exit potential were optimized and were set to 15, 50, and 11, respectively. Concentration was quantified by comparing the deuterium-to-protium ratio of brain unesterified EPA with standard lines generated from authentic standards. Authentic standards in appropriate dilutions (0.002-2 ng) were prepared and analyzed simultaneously with brain samples. The lower limit of quantification (LLQ) was 0.002 ng (6.3 fmol of […] identified with an Agilent 7890A gas chromatograph (Agilent Technologies) equipped with a SP-2380 (Supelco) fused silica column (Agilent Technologies; 30 m × 0.25 mm I.D. × 0.2 μm film thickness) and an Agilent 5975C quadruple mass spectrometry detector (Agilent Technologies). The sample was injected in split mode (10:1). The injection port temperature was set to 240°C and the ionization mode was set to negative chemical ionization using methane. FAPEs were eluted using a temperature program initially set at 150°C for 1 min, increase at 12°C/min to 270°C, and then at 40°C/min to 275°C for 3 min. […]

CCCCCCCCCCCCCCC1(C(=O)OC)CO1 (stereo not shown) [MEP, methyl-2-tetradecylglycidate, reference compound]
increase in brain α-linolenoyl-CoA concentration [1]: 49%
reduction in brain DHA-CoA [1]: 26%
reduction in brain EPA-CoA [1]: 16%
fold increase in brain unesterified EPA [2]: 1.3 fold
fold increase in brain unesterified linoleate (18:2n-6) [2]: 1.4 fold
fold increase in brain unesterified palmitate [2]: 2.5 fold
fold increase in brain unesterified α-linolenate (18:3n-3) [2]: 1.5 fold

— PMC3735939, “The low levels of eicosapentaenoic acid in rat brain phospholipids are maintained via multiple redundant mechanisms” (Journal of Lipid Research, 2013)
